Reference: paper PMC5944028, “Nonclinical and clinical pharmacological characterization of the potent and selective cathepsin K inhibitor MIV-711” (Journal of Translational Medicine, 2018)

What was measured:
[1] = test system: urine NTX-I; assay: Monkey urine NTX-I, multiple doses; assay type: in vivo, cynomolgus monkeys (Macaca fascicularis)
Method: Biomarkers such as NTX-I (bone resorption) and CTX-II (cartilage degradation) are typically measured in urine. Additional experiments in which urine was collected were therefore performed. In these experiments, four cynomolgus monkeys (Macaca fascicularis) were used (Aptuit, Edinburgh, UK). The animals were healthy young females weighing 3.5–4 kg. Animals were dosed with vehicle or MIV-711 via oral gavage at a dose volume of 5 mL/kg between 7:30 and 8:30 a.m. Animals first received vehicle via oral gavage for five consecutive days. After a washout period, the animals then received MIV-711 (30 µmol/kg) via oral gavage for five consecutive days.
Urine was collected between 8–12 a.m., 12 a.m.–4 p.m. and 4 p.m.–8 a.m. on Day 1 and Day 5 of respective treatment. Biomarkers were measured in each urine sample, corrected for creatinine, and the mean value of the three samples on Day 1 and Day 5 was calculated. The effect of MIV-711 was evaluated by comparing biomarkers in urine samples collected on Day 1 and Day 5 with respective vehicle sample. [drawing 3]
The quantification of CTX-I in monkey plasma samples and human serum samples was performed using a commercially available kit (Serum CrossLaps ELISA, IDS Nordic, Herlev, Denmark). The levels of CTX-I in monkey urine samples were measured using a commercially available kit (Urine BETA CrossLaps ELISA, IDS Nordic). […]

[2] = pKa; assay type: physicochemical
[3] = biological target: guinea pig cathepsin K; assay: Recombinant enzyme assay, guinea pig cathepsin K; assay type: biochemical; conditions: geometric mean
From the text: (§1) Recombinant cathepsin K enzymes from all species were expressed in E. coli, purified and activated. Human cathepsin F and cathepsin S were expressed in Baculovirus, purified and activated. Purified human cathepsins B and H (Athens Research Technology), cathepsin L (Calbiochem), and cathepsin V (R & D Systems) were purchased.
(§2) H-D-Ala_Leu-Lys-AMC was used as the substrate in assays of cathepsin K from non-rodent species (human, dog, rabbit and guinea pig), and Z-Leu-Arg-AMC was used as the substrate in assays of cathepsin K from rodent species (mouse and rat). […]
(§3) Assays were carried out in white polystyrene 96-well plates in a final volume of 100 µL. […] Plates were read in a Fluoroskan Ascent (Thermo Labsystems, Helsinki, Finland) in kinetic mode, with excitation and emission filters of 390 and 460 nm, respectively. Rates were determined by linear regression of the fluorescence/time data in Excel. Rates were fitted by non-linear regression to either the competitive inhibition equation, with the substrate concentration fixed at the value in the assay and the KM fixed to the value previously determined, or the IC50 equation using GraphPad Prism (GraphPad, version 6, San Diego, USA) to obtain Ki or IC50 values, respectively.

[4] = biological target: T1, human cathepsin V (Homo sapiens, UniProt O60911); assay: Enzyme assay, human cathepsin V; assay type: biochemical
T1 construct: purchased R & D Systems
T1 sequence (O60911 114-334): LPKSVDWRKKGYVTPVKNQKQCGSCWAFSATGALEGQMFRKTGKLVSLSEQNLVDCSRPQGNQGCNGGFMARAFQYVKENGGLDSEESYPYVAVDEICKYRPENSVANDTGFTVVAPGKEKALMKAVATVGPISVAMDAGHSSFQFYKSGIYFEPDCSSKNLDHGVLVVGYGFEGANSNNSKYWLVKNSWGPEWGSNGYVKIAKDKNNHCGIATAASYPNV
From the text: as §1, §2, §3

[5] = test system: differentiated human osteoclasts; assay: Osteoclast-mediated bone resorption, human bone fragments (CTX-I release); assay type: cell-based
Method: The effect of MIV-711 on osteoclast-mediated bone resorption was evaluated using a complete kit from Cambrex Bio Science (Walkersville, MD, USA). Briefly, primary osteoclasts were generated from osteoclast precursors by incubation with RANK ligand and M-CSF in 96-well plates coated with human bone fragments, according to the instructions from the provider. After differentiation (minimum of 5 days), osteoclasts were exposed to different fixed concentrations of MIV-711 for 24 h. The resorption activity of the cultures was determined by quantifying CTX-I in the culture supernatants using a commercially available enzyme-linked immunosorbent assay (CrossLaps®, Nordic Bioscience Diagnostics A/S, Herlev, Denmark). Controls exposed to medium without inhibitor were set to 100%. CTX-I levels from MIV-711-treated cells were normalized and expressed as % of control. Curves were generated plotting the concentration of MIV-711 versus % of control. The curves were fitted to the Hill (four parameter) equation to generate an IC50 value using GraphPad Prism software. The IC50 value was defined as the concentration of MIV-711 that reduced CTX-I levels to 50% of control.

## C#C[C@@H]1CN(C(=O)[C@H](CC(C)C)NC(=O)c2ccc(-c3nc(N4CCN(C)CC4)sc3F)cc2)[C@@H]2C(=O)CO[C@H]12 [MIV-711]
[1]; 30 µmol/kg p.o. once daily for 5 days, creatinine-corrected
  Reduction of urinary NTX-I compared to vehicle: 71%
[1]; single dose 30 µmol/kg p.o. (Day 1)
  Effect on urinary NTX-I compared to vehicle: immediately reduced
[2]
  pKa: 7.15
[3]
  Ki: 9.8 nM
[4]
  Ki: 4000 nM
[5]
  Concentration needed for effect on bone resorption in vitro relative to Ki: around 50 fold
[5]; human bone fragments, 24 h, CTX-I, geometric mean
  IC50: 43 nM
